For one assay, the target named is T1, hPTP1B1–285 (Homo sapiens, UniProt P18031).
T1 construct: h PTP1B 1–285 IC 50 (μM ± S.D); made in house
T1 sequence (P18031 1-285): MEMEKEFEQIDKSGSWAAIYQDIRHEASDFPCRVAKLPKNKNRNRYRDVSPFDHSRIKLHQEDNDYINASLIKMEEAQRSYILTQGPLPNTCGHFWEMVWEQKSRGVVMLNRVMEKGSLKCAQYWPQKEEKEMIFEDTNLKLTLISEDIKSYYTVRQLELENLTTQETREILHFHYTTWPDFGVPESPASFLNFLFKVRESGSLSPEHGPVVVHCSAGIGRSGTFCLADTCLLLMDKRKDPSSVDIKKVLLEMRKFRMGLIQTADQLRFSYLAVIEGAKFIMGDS
Put plainly: PTP1B inhibition, pNPP hydrolysis, short form. In kind it is biochemical. The following applies: pNPP substrate; ± S.D. As for the experimental part:
In contrast to analogous regions in other PTP family proteins, the intrinsically disordered C-terminal domain of PTP1B (residues 301–400) contains two α-helices, α8′ (residues 320–327) and α9′ (residues 360–377), which may act as binding sites for various compounds.
Aliquots of 0–10 μL of the test compounds (triplicate) were taken and incubated for 15 min at 37 °C with 85 μL of Tris buffer solution (50 mM, pH 6.8) containing PTP1B enzyme and 5 μL of p-nitrophenyl phosphate substrate (pNPP, 10 mM). The absorbance of the hydrolysis product, p-nitrophenol (pNP), was measured at 405 nm using a 96-microplate absorbance reader (Accuris SmartReader 96). The inhibitory activity was determined according to eq . %enzyme=(A405b/A405c)×100 1 Where: % enzyme is the percentage of inhibition for PTP1B or TCPTP
The IC50 was calculated using regression analysis, eq : %inhibition=A100/1+(I/IC50)^s 2 Where: A100: Maximum inhibition

A further assay concerns the target T2, hPTP1B1–400 (Homo sapiens, UniProt P18031).
T2 construct: h PTP1B 1–400 IC 50 (μM ± S.D); made in house
T2 sequence (P18031 1-400): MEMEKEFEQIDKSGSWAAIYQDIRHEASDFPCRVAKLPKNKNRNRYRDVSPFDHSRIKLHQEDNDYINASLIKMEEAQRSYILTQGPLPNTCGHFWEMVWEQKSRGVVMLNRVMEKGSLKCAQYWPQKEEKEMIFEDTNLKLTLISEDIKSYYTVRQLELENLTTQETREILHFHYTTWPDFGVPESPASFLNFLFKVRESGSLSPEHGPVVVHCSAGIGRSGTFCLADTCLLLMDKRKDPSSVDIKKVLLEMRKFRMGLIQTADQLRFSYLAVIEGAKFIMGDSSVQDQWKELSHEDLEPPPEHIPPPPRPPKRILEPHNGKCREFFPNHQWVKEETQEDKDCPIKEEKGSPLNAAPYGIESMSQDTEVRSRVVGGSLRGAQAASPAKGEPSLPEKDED
Briefly: Enzymatic kinetics studies (Lineweaver–Burk, model fitting). In kind it is biochemical. The following applies: for inhibition type: hPTP1B1–400, best fit model; for Ki: hPTP1B1–400, pNPP 0.1–0.5 mM; for Km / Vmax: hPTP1B1–400 with inhibitor. As for the experimental part: Kinetic analyses were conducted using varying concentrations of substrate and inhibitor.
Five increasing concentrations of each inhibitor were tested, according to their previously determined IC50 values. The negative control was prepared by omitting the inhibitor in the presence of the enzyme and substrate. The Supporting Information includes detailed eqs (E1–E5) used to determine the kinetic parameters and mechanisms involved in PTP1B inhibition.
Equation 1 was used to obtain enzyme kinetic parameters by fitting data to the Michaelis-Menten model (Origin Pro
The equations defined for the following non-linear inhibition models were used to determine the mechanism of
PTP1B inhibition: competitive (E2), non-competitive (E3), uncompetitive (E4), and mixed (E5) (Origin Pro 2018 (64
(1+ ( ))(x05nh ) + (1+ ( )) (x05 nh)
Vmax is the maximum velocity, x is the substrate concentration, i is the inhibitor concentration, nh is the number of
Hill. Ki is the inhibition constant, and Km is the Michaelis constant.

Another assay deals with normoglycemic CD1 mice. Briefly: Oral glucose tolerance test (OGTT). It counts as in vivo. The conditions noted are these: single intragastric dose 50 mg/kg, glucose 2 g/kg. As for the experimental part: The studies were carried out on compounds 4b, 4g, and 5g using both normoglycemic CD1 mice and a mouse model of noninsulin-dependent diabetes mellitus (NIDDM). An oral glucose tolerance test (OGTT) was conducted on the normoglycemic mice to evaluate the hypoglycemic activity of the compounds, while an insulin tolerance test (ITT) was performed on hyperglycemic CD1 mice to assess the compounds’ capacity to enhance insulin sensitivity in streptozotocin-induced diabetic mice. Pioglitazone and GA were included as positive controls.
Healthy six-week-old male CD-1 mice, weighing between 30 and 40 g, were maintained at a temperature of 25 ± 2 °C, under a 12-h light/dark cycle and 45–65% humidity throughout the experimental period. The mice were provided with a rodent pelleted diet (Harlan Laboratories, Indianapolis, USA) and had access to water ad libitum. Sixteen hours before the experiment, all mice were fasted but still had free access to water. All animal procedures were conducted in accordance with the Mexican Federal Regulations for Animal Experimentation and Care (SAGARPA, NOM-062-ZOO-1999, Mexico) and received approval from the Institutional Animal Care and Use Committee, following guidelines outlined in the US National Institutes of Health publication (No. 85–23, revised 1985).
Animals were categorized into five groups, each consisting of four mice (n = 4). The experimental groups received an oral suspension of compounds 4b, 4g, and 5g, prepared in a 10% Tween 20/water solution, at a dosage of 50 mg/kg body weight. A control group was treated with only the 10% Tween 20 solution. The final group was administered pioglitazone at a dose of 45 mg/kg, which is recognized as a reference drug for insulin sensitization. To evaluate glucose levels, blood samples were collected from the tails of the mice at 0, 30, 60, 90, and 120 min after the administration of the vehicle, test compound, or drug. Blood glucose concentration was measured using a commercial glucometer (Accu-Chek, Performa; Roche) and the enzymatic glucose dehydrogenase method. The percentage variation in glycemia was calculated by comparing the selected postadministration glycemia (G x ) with the initial value (G0) using the following formula: %variationofglycemia=[(Gx−G0)/G0]×100 where G0 represents the initial glycemia values and Gx indicates the glycemia values at +30, + 60, + 90, and +120 min, respectively.
To determine the hypoglycemic effect of the compounds on nondiabetic animals, the compounds 4b, 4g, and 5g were administered intragastrically. Pioglitazone was used as a positive control. After 30 min, five mice/group (CD-1) were subjected to OGTT. The test was performed using glucose (2 g/kg) as substrate.

For `CC1(C)c2[nH]c3ccc(OC(F)F)cc3c2C[C@]2(C)[C@H]3C(=O)C=C4[C@@H]5C[C@@](C)(C(=O)O)CC[C@]5(C)CC[C@@]4(C)[C@]3(C)CC[C@@H]12` [compound 4b, (20β)-5′-(Difluoromethoxy)-11-oxo-1′H-oleana-2,12-dieno[3,2-b]indol-29-oic Acid], the midpoint of inhibition against hPTP1B1–285, the IC50, lay at 7.03 ± 0.28 µM. For the same compound, on hPTP1B1–400, the inhibition type result is “uncompetitive”, the Ki was determined as 0.32 ± 0.05 µM, the Km amounted to 760 ± 170 µM and the Vmax worked out at 1.24 ± 0.18 mM/min. In addition, in the assay on normoglycemic CD1 mice, the “hypoglycemic effect in OGTT” value was “did not cause hypoglycemia”.
With `CC1(C)c2[nH]c3ccc(S(N)(=O)=O)cc3c2C[C@]2(C)[C@H]3C(=O)C=C4[C@@H]5C[C@@](C)(C(=O)O)CC[C@]5(C)CC[C@@]4(C)[C@]3(C)CC[C@@H]12` [compound 4g, (20β)-5′-Sulfamoyl-11-oxo-1′H-oleana-2,12-dieno[3,2-b]indol-29-oic Acid], the IC50 against hPTP1B1–285 amounted to 9.11 ± 0.58 µM. Also, at hPTP1B1–400, the inhibition type entry is given as “uncompetitive”, the Ki came out at 1.62 ± 0.19 µM, the Km amounted to 870 ± 130 µM and the Vmax worked out at 1.46 ± 0.15 mM/min. In addition, in the assay on normoglycemic CD1 mice, the “hypoglycemic effect in OGTT” value is recorded as “did not cause hypoglycemia”.
As to `CC1(C)c2c(cnn2-c2ccc(S(N)(=O)=O)cc2)C[C@]2(C)[C@H]3C(=O)C=C4[C@@H]5C[C@@](C)(C(=O)O)CC[C@]5(C)CC[C@@]4(C)[C@]3(C)CC[C@@H]12` [compound 5g, (20β)-11-Oxo-2′-(4-sulfamoylphenyl)-2′H-oleana-2,12-dieno[3,2-c]pyrazol-29-oic Acid], the IC50 against hPTP1B1–285 was determined as 5.51 ± 0.16 µM. On hPTP1B1–400, the inhibition type entry is reported as “uncompetitive”, the Ki turned out to be 0.72 ± 0.12 µM, the Km came to 970 ± 200 µM and the Vmax is 1.34 ± 0.21 mM/min. Moreover, the “hypoglycemic effect in OGTT” value in the assay with normoglycemic CD1 mice is given as “did not cause hypoglycemia”.

As a reminder, the IC50 is the concentration that inhibits the measured activity by half. A low value points to inhibition by little substance. The Ki is a measure of affinity in units of concentration, obtained from inhibition or displacement. Low readings indicate a stronger hold on the target, high ones a looser hold on the target. As usually defined, the Km is the concentration of substrate that gives half-maximal velocity. The Vmax is the top rate of the reaction or transport when substrate is in excess.

For the origin of these results see PMC12921516 (ACS Bio & Med Chem Au, 2025).
